Data: patent US6602878B1, “Acylquanidine derivatives, method for preparing same, application as medicines and pharmaceutical compositions containing them” (Aventis Pharma S.A., priority 1998, dated 2003)

These compounds were tested against human αvβ3 receptor (Homo sapiens, UniProt P05106+P06756) (assay: Kistrin/Vitronectin Receptor (αvβ3) ELISA Test). Details: kistrin-coated plates, 3 hours at ambient temperature, OD 450 nm, read-out: K/VnR IC50.
human αvβ3 receptor, sequence (P06756 31-889 limits assumed): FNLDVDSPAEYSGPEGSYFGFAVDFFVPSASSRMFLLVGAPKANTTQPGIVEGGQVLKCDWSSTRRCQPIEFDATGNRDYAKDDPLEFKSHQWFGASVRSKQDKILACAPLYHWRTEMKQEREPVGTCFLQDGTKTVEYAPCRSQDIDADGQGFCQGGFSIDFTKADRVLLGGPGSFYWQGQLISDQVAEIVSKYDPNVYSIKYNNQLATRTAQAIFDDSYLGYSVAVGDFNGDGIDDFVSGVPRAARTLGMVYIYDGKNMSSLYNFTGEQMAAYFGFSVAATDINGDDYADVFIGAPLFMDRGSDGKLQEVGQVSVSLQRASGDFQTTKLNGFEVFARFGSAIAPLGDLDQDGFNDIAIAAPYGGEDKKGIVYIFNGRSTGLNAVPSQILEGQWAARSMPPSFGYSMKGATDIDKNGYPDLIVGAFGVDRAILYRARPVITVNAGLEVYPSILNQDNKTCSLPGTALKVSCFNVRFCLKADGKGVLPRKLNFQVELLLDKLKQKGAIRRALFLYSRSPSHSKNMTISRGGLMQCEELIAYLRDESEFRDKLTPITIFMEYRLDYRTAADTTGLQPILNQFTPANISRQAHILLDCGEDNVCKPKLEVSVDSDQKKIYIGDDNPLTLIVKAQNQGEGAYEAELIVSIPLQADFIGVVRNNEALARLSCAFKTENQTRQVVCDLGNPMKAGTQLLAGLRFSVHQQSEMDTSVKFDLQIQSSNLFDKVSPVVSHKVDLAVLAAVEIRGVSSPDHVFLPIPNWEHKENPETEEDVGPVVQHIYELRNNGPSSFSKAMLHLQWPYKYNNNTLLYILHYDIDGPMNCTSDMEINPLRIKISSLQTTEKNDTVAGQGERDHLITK
human αvβ3 receptor, sequence (P06756 891-1048 partner limits assumed): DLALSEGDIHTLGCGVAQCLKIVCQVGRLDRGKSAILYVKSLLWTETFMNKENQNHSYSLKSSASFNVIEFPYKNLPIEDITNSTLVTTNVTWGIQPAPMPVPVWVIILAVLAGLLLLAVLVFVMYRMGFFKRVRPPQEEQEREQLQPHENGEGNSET
human αvβ3 receptor, sequence (P05106 27-788): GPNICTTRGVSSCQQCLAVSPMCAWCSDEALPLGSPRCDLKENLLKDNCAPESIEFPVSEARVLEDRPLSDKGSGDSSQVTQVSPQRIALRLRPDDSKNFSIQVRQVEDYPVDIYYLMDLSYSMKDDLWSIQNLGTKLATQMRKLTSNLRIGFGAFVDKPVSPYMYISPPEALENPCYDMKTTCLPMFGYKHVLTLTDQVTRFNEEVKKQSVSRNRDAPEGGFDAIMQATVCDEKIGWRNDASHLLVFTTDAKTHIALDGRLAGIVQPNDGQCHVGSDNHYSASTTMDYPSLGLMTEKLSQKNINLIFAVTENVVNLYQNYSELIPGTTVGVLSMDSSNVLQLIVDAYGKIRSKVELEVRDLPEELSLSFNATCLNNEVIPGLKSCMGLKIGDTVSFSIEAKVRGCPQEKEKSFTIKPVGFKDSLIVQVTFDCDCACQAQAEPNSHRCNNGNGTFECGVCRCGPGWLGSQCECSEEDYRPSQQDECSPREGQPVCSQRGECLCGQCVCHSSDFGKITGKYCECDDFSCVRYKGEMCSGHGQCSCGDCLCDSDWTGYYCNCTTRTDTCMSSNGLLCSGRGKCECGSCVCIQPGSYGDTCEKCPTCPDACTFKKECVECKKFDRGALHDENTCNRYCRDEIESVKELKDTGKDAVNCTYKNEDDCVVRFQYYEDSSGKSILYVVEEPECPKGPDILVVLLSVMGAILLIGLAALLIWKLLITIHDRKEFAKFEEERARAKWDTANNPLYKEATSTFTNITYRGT
Assay type: binding
Description: Kistrin/Vitronectin Receptor (αvβ3) ELISA Test
96-well MaxiSorp plates are coated overnight at […] with 100 μl of Kistrin at 1 μg/ml (dilution in coating buffer: 0.05 M (carbonate)/NaOH pH 9.6. The next day, the wells are emptied and the ligands (kistrin) are then fixed (fixation buffers: PBS containing 0.5% BSA (pH=7.4)) for 1 hour at ambient temperature under gentle agitation of 125 rpm. The wells are washed six times (washing buffer: PBS containing 0.05% Tween 20 (pH 7.7) then the following is added per well and in this order:
40 μl of incubation buffer
10 μl of the dilution of the product to be tested (the products are diluted in a 50:50 DMSO/water mixture)
50 μl of human αvβ3 receptor (cf Pytel et al. Methods Enzymol. (1987) 144 (Dilution in incubation buffer, adapted according to the batch of receptor and according to the ligand). The ligand, the αvβ3 receptor and the products to be studied are incubated for 3 hours at ambient temperature with gentle agitation of 125 rpm.
The wells are again washed six times, then incubated for 2 hours at ambient temperature with gentle agitation of 125 rpm, in the presence of 100 μl of anti-receptor antibody coupled to a peroxidase (The 4B12-HRP antibody is diluted in incubation buffer (50 mM TRIS pH 7.4; 0.5% BSA; 0.05% Tween 20; 1 mM MnCl2; 50 μM CaCl2; 50 μM MgCl2; 100 mM NaCl). The dilution is to be adapted according to the batch of receptor.
The wells are then washed six times before measurement of the ligand-receptor bond is carried out using a peroxidase developer kit (TBM Microwell Peroxidase Substrate System Kirkegaard; Ref cat 50-76-00).
This kit contains a flask A of substrate (3,3′,5,5′-tetramethylebenzidine at 0.4 g/l) and a flask B (H2O2 to 0.02% in Citrate/Citric acid). Extemporaneously, one volume of A is mixed with one volume of B, then the reaction mixture is distributed at a rate of 100 μl/wells.
The enzymatic reaction develops between 6 to 10 minutes for Kistrin/αvβ3 then its development is stopped by the addition of 100 μl of 1 M phosphoric acid. The optical density is determined at 450 nm.
Expression of the Results
The following curve is plotted: the bond percentage as a function of the logarithm of each concentration of the tested product.
For each product IC50 is determined according to the following formula:
B0=Maximum bond in the absence of any product
Bmin=Minimum bond in the presence of the highest
Compound `N=C(N)NC(=O)CCc1ccc(OCCC(NC(=O)OCc2ccccc2)C(=O)O)cc1` (stereo not drawn) [Example 1, O—[4-[3-[(aminoiminomethyl)amino]-3-oxopropyl]phenyl]-N-[(phenylmethoxy)carbonyl]-homoserine] has an IC50 of 31 nM. For `O=C(CCc1ccc(OCC[C@H](NC(=O)OCc2ccccc2)C(=O)O)cc1)NC1=NCCCN1` [Example 2, O—[4-[3-oxo-3-[(1,4,5,6-tetrahydro-2-pyrimidinyl)amino]-propyl]phenyl]-N-[(phenylmethoxy)carbonyl]-homoserine], the IC50 was 7.3 nM. In the case of `CCOC(=O)C(CCOc1ccc(CCC(=O)NC2=NCCCN2)cc1)NC(=O)OCc1ccccc1` (stereo not drawn) [Example 3, Ethyl O—[4-[3-oxo-3-[(1.4,5,6-tetrahydro-2-pyrimidinyl)amino]-propyl]phenyl]-N [(phenylmethoxy)carbonyl]-homoserinate], the IC50 is reported as 403 nM. `CC(C)OC(=O)C(CCOc1ccc(CCC(=O)NC2=NCCCN2)cc1)NC(=O)OCc1ccccc1` (stereo not drawn) [Example 4, (1-Methyl)ethyl O—[4-[3-oxo-3-[(1.4,5,6-tetrahydro-2-pyrimidinyl)amino]-propyl]phenyl]-N-[(phenylmethoxy)carbonyl]-homoserinate] gave an IC50 of 5000 nM. With `O=C(CCc1ccc(OCC[C@H](NC(=O)OCC23CC4CC(CC(C4)C2)C3)C(=O)O)cc1)NC1=NCCCN1` [Example 5, O—[4-[3-oxo-3-[(1.4,5,6-tetrahydro-2-pyrimidinyl)amino]-propyl]phenyl]-N-[[(1-tricyclo[3.3.1.1^3,7]decyl)-methoxy]-carbonyl]-homoserine] the IC50 was 12 nM. Work on `Cc1cc(C)c(S(=O)(=O)NC(CCOc2ccc(CCC(=O)NC3=NCCCN3)cc2)C(=O)O)c(C)c1` (stereo not drawn) [Example 6, O—[4-[3-oxo-3-[(1.4,5,6-tetrahydro-2-pyrimidinyl)amino]-propyl)phenyl]-N-[(2.4,6-trimethylphenyl)sulphonyl]-homoserine] yielded an IC50 of 3.3 nM. `O=C(CCc1ccc(OCCC(NS(=O)(=O)c2cccc3ccccc23)C(=O)O)cc1)NC1=NCCCN1` (stereo not drawn) [Example 7, O—[4-[3-oxo-3-[(1.4,5,6-tetrahydro-2-pyrimidinyl)amino]-propyl]phenyl]-N-[(1-naphthalenyl)sulphonyl]-homoserine] showed an IC50 of 2.5 nM. Work on `O=C(CCc1cccc(OCCC(NC(=O)OCc2ccccc2)C(=O)O)c1)NC1=NCCCN1` (stereo not drawn) [Example 8, O—[3-[3-oxo-3-[(1,4,5,6-tetrahydro-2-pyrimidinyl)amino]-propyl]phenyl]-N-[(phenylmethoxy)carbonyl]-homoserine;] yielded an IC50 of 13 nM. Compound `O=C(CCc1cccc(OCCCC(NC(=O)OCc2ccccc2)C(=O)O)c1)NC1=NCCCN1` (stereo not drawn) [Example 9, 5-[3-[3-oxo-3-[(1.4,5,6-tetrahydro-2-pyrimidinyl)amino]-propyl]phenoxy]-N-[(phenylmethoxy)carbonyl]-norvaline] has an IC50 of 110 nM.
